Reference: publication PMC8546428, “Convergent olfactory trace amine-associated receptors detect biogenic polyamines with distinct motifs via a conserved binding site” (The Journal of Biological Chemistry, 2021)

Experiments:
[1] = target: T1, sTAAR365 T7.42V (Petromyzon marinus, UniProt A0A678XMK4, T298V)
T1 sequence (A0A678XMK4 1-365 T298V): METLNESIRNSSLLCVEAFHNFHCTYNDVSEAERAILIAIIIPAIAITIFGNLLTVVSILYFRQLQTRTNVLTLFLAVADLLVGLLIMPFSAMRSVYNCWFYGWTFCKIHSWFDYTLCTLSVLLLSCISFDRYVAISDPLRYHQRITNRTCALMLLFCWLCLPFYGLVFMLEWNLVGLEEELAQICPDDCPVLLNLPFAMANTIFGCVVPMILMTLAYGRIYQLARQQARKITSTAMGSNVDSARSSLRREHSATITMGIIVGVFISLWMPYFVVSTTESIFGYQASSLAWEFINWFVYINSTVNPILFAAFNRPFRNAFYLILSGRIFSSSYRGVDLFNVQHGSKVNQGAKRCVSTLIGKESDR

[2] = target: T2, WT mTAAR9 (Mus musculus, UniProt Q5QD04); experiment: CRE-luciferase reporter assay, wild-type mTAAR9 in Hana3A; type: cell-based; conditions: mouse TAAR9, ligand 1 mM, Fig. 1B
T2 construct: Rho-tag (first 20 amino acids of bovine rhodopsin) (N); expressed in transfected cells; host or cells: Hana3A (HEK293-derived)
T2 sequence (Q5QD04 1-348): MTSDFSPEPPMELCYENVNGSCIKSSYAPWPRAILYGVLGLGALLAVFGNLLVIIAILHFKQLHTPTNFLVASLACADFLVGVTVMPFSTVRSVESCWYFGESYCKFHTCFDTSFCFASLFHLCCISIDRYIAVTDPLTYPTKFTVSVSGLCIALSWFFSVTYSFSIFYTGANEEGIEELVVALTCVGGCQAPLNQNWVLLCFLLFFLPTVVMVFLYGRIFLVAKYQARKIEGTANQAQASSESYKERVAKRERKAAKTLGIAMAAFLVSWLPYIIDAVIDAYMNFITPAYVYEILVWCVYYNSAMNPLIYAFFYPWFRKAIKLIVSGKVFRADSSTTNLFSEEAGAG
Protocol: (§1) Mammalian TAAR9 plasmids were transfected into Hana3A cells along with a cAMP-dependent luciferase reporter plasmid (CRE-Luc). Transfected cells were incubated with tested ligands, and luciferase activity was quantified with a […] substrate as a reporter for Golf-mediated TAAR activation. Luciferase activity was indicated by the luminescence value and normalized as a fold-increase over the response to the vehicle stimuli (mean ± S.D., n = 3). […] B, Hana3A cells expressing mouse, rat, human, cat, hamster, and rabbit TAAR9 were incubated with either vehicle or tested ligands (1 mM) and assayed for reporter activity. C, concentration-dependent luciferase activity in Hana3A cells expressing mouse, rat, and cat TAAR9 receptors stimulated with cadaverine, spermidine, and spermine.
(§2) The firefly luciferase and renilla luciferase activity was measured with a BioTek microplate reader following manufacturer’s instructions.

[3] = target: hamster TAAR9 (Mesocricetus auratus, UniProt A0A1U7R5X1); conditions: hamster TAAR9, ligand 1 mM, Fig. 1B
Chain of hamster TAAR9 (A0A1U7R5X1 1-348): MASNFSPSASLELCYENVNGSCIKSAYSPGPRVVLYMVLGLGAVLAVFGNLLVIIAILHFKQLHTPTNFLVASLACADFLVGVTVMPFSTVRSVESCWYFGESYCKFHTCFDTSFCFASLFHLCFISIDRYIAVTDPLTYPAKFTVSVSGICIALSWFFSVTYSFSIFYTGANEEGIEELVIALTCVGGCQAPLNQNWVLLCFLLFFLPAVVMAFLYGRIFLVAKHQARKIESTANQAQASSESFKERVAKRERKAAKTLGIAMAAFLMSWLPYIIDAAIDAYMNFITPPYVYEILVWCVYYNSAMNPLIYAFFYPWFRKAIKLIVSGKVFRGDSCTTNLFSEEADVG
Protocol: (§3) We examined the response of TAAR9s from rat, human, hamster, and rabbit to the stimulation of 1 mM amines using a well-established cAMP response element (CRE)-driven luciferase reporter assay based on Golf-mediated cAMP signal transduction ([5], [24]). In addition to the four mTAAR9 ligands, we included putrescine, which is also a polyamine and precursor of spermine/spermidine biosynthesis.
as §1, §2

[4] = target: human TAAR9 (Homo sapiens, UniProt Q96RI9); conditions: human TAAR9, ligand 1 mM, Fig. 1B
Chain of human TAAR9 (Q96RI9 whole entry): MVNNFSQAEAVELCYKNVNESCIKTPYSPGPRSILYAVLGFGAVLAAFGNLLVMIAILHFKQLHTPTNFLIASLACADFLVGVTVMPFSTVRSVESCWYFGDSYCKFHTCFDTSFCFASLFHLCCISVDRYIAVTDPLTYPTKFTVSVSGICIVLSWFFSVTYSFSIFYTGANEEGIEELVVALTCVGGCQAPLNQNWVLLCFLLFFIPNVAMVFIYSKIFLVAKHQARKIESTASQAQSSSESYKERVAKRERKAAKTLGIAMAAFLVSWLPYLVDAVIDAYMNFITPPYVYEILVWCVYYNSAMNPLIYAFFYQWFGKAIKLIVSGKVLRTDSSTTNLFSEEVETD
Protocol: as §3, §1, §2

[5] = target: rabbit TAAR9 (Oryctolagus cuniculus, UniProt G1SUU9); conditions: rabbit TAAR9, ligand 1 mM, Fig. 1B
Chain of rabbit TAAR9 (G1SUU9 1-348): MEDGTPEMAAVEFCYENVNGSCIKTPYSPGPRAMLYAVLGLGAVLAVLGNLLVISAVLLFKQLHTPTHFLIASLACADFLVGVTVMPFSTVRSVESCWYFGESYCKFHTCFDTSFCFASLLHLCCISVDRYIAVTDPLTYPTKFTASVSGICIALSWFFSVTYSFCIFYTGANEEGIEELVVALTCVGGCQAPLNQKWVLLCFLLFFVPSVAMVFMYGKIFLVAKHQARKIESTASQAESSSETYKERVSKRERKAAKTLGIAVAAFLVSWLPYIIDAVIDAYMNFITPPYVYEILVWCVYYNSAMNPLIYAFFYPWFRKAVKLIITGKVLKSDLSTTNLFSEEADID
Protocol: as §3, §1, §2

[6] = test system: Cat TAAR9; conditions: cat TAAR9, ligand 1 mM, Fig. 1B
Protocol: as §3, §1, §2

Row | SMILES | increase of EC50 vs wild-type sTAAR365 [1] | reporter activity (activation of TAAR9) [2] | reporter activity (activation of TAAR9) [3] | reporter activity (activation of TAAR9) [4] | reporter activity (activation of TAAR9) [5] | reporter activity (activation of TAAR9) [6]
1 | NCCCCCN [cadaverine] | over three |  |  |  |  | 
2 | NCCCCN [putrescine] |  | not activated | not activated | not activated | not activated | not activated
